Experimental data reported in patent US10689414B2 (Agios Pharmaceuticals, Inc., priority 2013, dated 2020).

Tested on: U87MG cells
Experiment: Cellular assay, inhibition of 2-HG production in U87MG cells
Type: cell-based
Details: Homo sapiens, U-87 MG, 48 h
Procedure: Cells (HT1080 or U87MG) are grown in T125 flasks in DMEM containing 10% FBS, 1× penicillin/streptomycin and 500 ug/mL G418 (present in U87MG cells only). They are harvested by trypsin and seeded into 96 well white bottom plates at a density of 5000 cell/well in 100 ul/well in DMEM with 10% FBS. […] Cells are incubated overnight at 37° C. in 5% CO2. The next day test compounds are made up at 2× the final concentration and 100 ul are added to each cell well. The final concentration of DMSO is 0.2% and the DMSO control wells are plated in row G. The plates are then placed in the incubator for 48 hours. […] The cell plate is placed back in the incubator for another 24 hours. At 72 hours post compound addition, 10 mL/plate of Promega Cell Titer Glo reagent is thawed and mixed. The cell plate is removed from the incubator and allowed to equilibrate to room temperature. Then 100 ul of Promega Cell Titer Glo reagent is added to each well of media. The cell plate is then placed on an orbital shaker for 10 minutes and then allowed to sit at room temperature for 20 minutes. The plate is then read for luminescence with an integration time of 500 ms.

IC50	SMILES
< 100 nM	CCOC(=O)CN1CC(=O)N(c2cc(C#N)ccn2)[C@H](C(=O)N(c2cc(F)cc(F)c2)[C@H](C(=O)NC2CC(F)(F)C2)c2ccccc2Cl)C1 [Compound 104]
< 100 nM	N#Cc1ccnc(N2C(=O)CN(C3CC3)C[C@H]2C(=O)N(c2cc(F)cc(F)c2)[C@H](C(=O)NC2CC(F)(F)C2)c2ccccc2Cl)c1 [Compound 106, (S)—N—((S)-1-(2-chlorophenyl)-2-((3,3-difluorocyclobutyl)amino)-2-oxoethyl)-1-(4-cyanopyridin-2-yl)-4-cyclopropyl-N-(3,5-difluorophenyl)-6-oxopiperazine-2-carboxamide]
< 100 nM	N#Cc1ccnc(N2C(=O)CN(CCO)C[C@H]2C(=O)N(c2cc(F)cc(F)c2)[C@H](C(=O)NC2CC(F)(F)C2)c2ccccc2Cl)c1 [Compound 107, (S)—N—((S)-1-(2-chlorophenyl)-2-((3,3-difluorocyclobutyl)amino)-2-oxoethyl)-1-(4-cyanopyridin-2-yl)-N-(3,5-difluorophenyl)-4-(2-hydroxyethyl)-6-oxopiperazine-2-carboxamide]
< 100 nM	CCOC(=O)CN1C[C@@H](C(=O)N(c2cccc(F)c2)C(C(=O)NC2CC(F)(F)C2)c2ccccc2Cl)N(c2nccc(C#N)n2)C1=O (stereo partly drawn) [Compound 111, Ethyl 2-((4S)-4-((1-(2-chlorophenyl)-2-((3,3-difluorocyclobutyl)amino)-2-oxoethyl)(3-fluorophenyl)carbamoyl)-3-(4-cyanopyrimidin-2-yl)-2-oxoimidazolidin-1-yl)acetate]
< 100 nM	N#Cc1ccnc(N2C(=O)N(CCO)C[C@H]2C(=O)N(c2cccc(F)c2)C(C(=O)NC2CC(F)(F)C2)c2ccccc2Cl)c1 (stereo partly drawn) [Compound 112, (4S)—N-(1-(2-Chlorophenyl)-2-(3,3-difluorocyclobutyl-amino)-2-oxoethyl)-3-(4-cyanopyridin-2-yl)-N-(3-fluorophenyl)-1-(2-hydroxyeth-yl)-2-oxoimidazolidine-4-carboxamide]
< 100 nM	N#Cc1ccnc(N2C(=O)[C@H](O)C[C@H]2C(=O)N(c2cccc(F)c2)[C@H](C(=O)NC2CC(F)(F)C2)c2ccccc2Cl)c1 [Compound 113, (2S,4R)—N—((S)-1-(2-Chlorophenyl)-2-(3,3-difluorocyclobutylamino)-2-oxoethyl)-1-(4-cyano-pyridin-2-yl)-N-(3-fluorophenyl)-4-hydroxy-5-oxopyrrolidine-2-carboxamide]
< 100 nM	N#Cc1ccnc(N2C(=O)[C@H](O)C[C@H]2C(=O)N(c2cc(F)cc(F)c2)[C@@H](C(=O)NC2CC(F)(F)C2)c2ccccc2Cl)c1 [Compound 114, (2S,4R)—N—((R)-1-(2-Chlorophenyl)-2-((3,3-difluorocyclobutyl)amino)-2-oxoethyl)-1-(4-cyanopyridin-2-yl)-N-(3,5-difluorophenyl)-4-hydroxy-5-oxopyrrolidine-2-carboxamide]
< 100 nM	N#Cc1ccnc(N2C(=O)[C@H](O)C[C@H]2C(=O)N(c2cc(F)cc(F)c2)[C@H](C(=O)NC2CC(F)(F)C2)c2ccccc2Cl)c1 [Compound 115, (2S,4R)—N—((S)-1-(2-Chlorophenyl)-2-((3,3-difluorocyclobutyl)amino)-2-oxoethyl)-1-(4-cyanopyridin-2-yl)-N-(3,5-difluorophenyl)-4-hydroxy-5-oxopyrrolidine-2-carboxamide]
100 to 500 nM	N#Cc1ccnc(N2C(=O)[C@H](O)C[C@H]2C(=O)N(c2cc(F)cc(F)c2)[C@@H](C(=O)NC2CC(F)(F)C2)c2ccccc2Cl)n1 [Compound 116, (2S,4R)—N—((R)-1-(2-Chlorophenyl)-2-((3,3-difluorocyclobutyl)amino)-2-oxoethyl)-1-(4-cyanopyrimidin-2-yl)-N-(3,5-difluorophenyl)-4-hydroxy-5-oxopyrrolidine-2-carboxamide]
< 100 nM	N#Cc1ccnc(N2C(=O)[C@H](O)C[C@H]2C(=O)N(c2cc(F)cc(F)c2)[C@H](C(=O)NC2CC(F)(F)C2)c2ccccc2Cl)n1 [Compound 117, (2S,4R)—N—((S)-1-(2-Chlorophenyl)-2-((3,3-difluorocyclobutyl)amino)-2-oxoethyl)-1-(4-cyanopyrimidin-2-yl)-N-(3,5-difluorophenyl)-4-hydroxy-5-oxopyrrolidine-2-carboxamide]
< 100 nM	N#Cc1ccnc(N2C(=O)[C@@H](O)C[C@H]2C(=O)N(c2cccc(F)c2)[C@H](C(=O)NC2CC(F)(F)C2)c2ccccc2Cl)c1 [Compound 118, (2S,4S)—N—((S)-1-(2-Chlorophenyl)-2-(3,3-difluorocyclobutylamino)-2-oxoethyl)-1-(4-cyano-pyridin-2-yl)-N-(3-fluorophenyl)-4-hydroxy-5-oxopyrrolidine-2-carboxamide]
100 to 500 nM	N#Cc1ccnc(N2C(=O)[C@@H](O)C[C@H]2C(=O)N(c2cccc(F)c2)[C@H](C(=O)NC2CC(F)(F)C2)c2ccccc2Cl)n1 [Compound 119, (2S,4S)—N—((S)-1-(2-Chlorophenyl)-2-(3,3-difluorocyclobutylamino)-2-oxoethyl)-1-(4-cyanopyrimidin-2-yl)-N-(3-fluorophenyl)-4-hydroxy-5-oxopyrrolidine-2-carboxamide]
100 to 500 nM	N#Cc1ccnc(N2C(=O)[C@H](O)C[C@H]2C(=O)N(c2cccc(F)c2)[C@H](C(=O)NC2CC(F)(F)C2)c2ccccc2Cl)n1 [Compound 120, (2S,4R)—N—((S)-1-(2-Chlorophenyl)-2-((3,3-difluorocyclobutyl)amino)-2-oxoethyl)-1-(4-cyanopyrimidin-2-yl)-N-(3-fluorophenyl)-4-hydroxy-5-oxopyrrolidine-2-carboxamide]
< 100 nM	N#Cc1ccnc(N2C(=O)[C@H](O)C[C@H]2C(=O)N(c2cccc(F)c2)[C@H](C(=O)NC2CCC(F)(F)CC2)c2ccccc2Cl)c1 [Compound 121, (2S,4R)—N—((S)-1-(2-Chlorophenyl)-2-((4,4-difluorocyclohexyl)amino)-2-oxoethyl)-1-(4-cyanopyridin-2-yl)-N-(3-fluorophenyl)-4-hydroxy-5-oxopyrrolidine-2-carboxamide]
100 to 500 nM	N#Cc1ccnc(N2C(=O)[C@H](O)C[C@H]2C(=O)N(c2cccc(F)c2)[C@@H](C(=O)NC2CCC(F)(F)CC2)c2ccccc2Cl)n1 [Compound 122, (2S,4R)—N—((R)-1-(2-Chlorophenyl)-2-((4,4-difluorocyclohexyl)amino)-2-oxoethyl)-1-(4-cyanopyrimidin-2-yl)-N-(3-fluorophenyl)-4-hydroxy-5-oxopyrrolidine-2-carboxamide]
< 100 nM	N#Cc1ccnc(N2C(=O)[C@H](O)C[C@H]2C(=O)N(c2cccc(F)c2)[C@H](C(=O)NC2CCC(F)(F)CC2)c2ccccc2Cl)n1 [Compound 123, (2S,4R)—N—((S)-1-(2-Chlorophenyl)-2-((4,4-difluorocyclohexyl)amino)-2-oxoethyl)-1-(4-cyanopyrimidin-2-yl)-N-(3-fluorophenyl)-4-hydroxy-5-oxopyrrolidine-2-carboxamide]
< 100 nM	N#Cc1ccnc(N2C(=O)[C@H](O)C[C@H]2C(=O)N(c2cc(F)cc(F)c2)[C@@H](C(=O)NC2CCC(F)(F)CC2)c2ccccc2Cl)c1 [Compound 124, (2S,4R)—N—((R)-1-(2-Chlorophenyl)-2-(4,4-difluorocyclohexylamino)-2-oxoethyl)-1-(4-cyanopyridin-2-yl)-N-(3,5-difluorophenyl)-4-hydroxy-5-oxopyrrolidine-2-carboxamide]
< 100 nM	N#Cc1ccnc(N2C(=O)[C@H](O)C[C@H]2C(=O)N(c2cc(F)cc(F)c2)[C@H](C(=O)NC2CCC(F)(F)CC2)c2ccccc2Cl)c1 [Compound 125, (2S,4R)—N—((S)-1-(2-Chlorophenyl)-2-(4,4-difluorocyclohexylamino)-2-oxoethyl)-1-(4-cyanopyridin-2-yl)-N-(3,5-difluorophenyl)-4-hydroxy-5-oxopyrrolidine-2-carboxamide]
100 to 500 nM	N#Cc1ccnc(N2C(=O)[C@H](O)C[C@H]2C(=O)N(c2cc(F)cc(F)c2)[C@@H](C(=O)NC2CCC(F)(F)CC2)c2ccccc2Cl)n1 [Compound 126, (2S,4R)—N—((R)-1-(2-Chlorophenyl)-2-(4,4-difluorocyclohexylamino)-2-oxoethyl)-1-(4-cyanopyrimidin-2-yl)-N-(3,5-difluorophenyl)-4-hydroxy-5-oxopyrrolidine-2-carboxamide]
< 100 nM	N#Cc1ccnc(N2C(=O)[C@H](O)C[C@H]2C(=O)N(c2cc(F)cc(F)c2)[C@H](C(=O)NC2CCC(F)(F)CC2)c2ccccc2Cl)n1 [Compound 127, (2S,4R)—N—((S)-1-(2-Chlorophenyl)-2-(4,4-difluorocyclohexylamino)-2-oxoethyl)-1-(4-cyanopyrimidin-2-yl)-N-(3,5-difluorophenyl)-4-hydroxy-5-oxopyrrolidine-2-carboxamide]
< 100 nM	N#Cc1cccc(N(C(=O)[C@@H]2CCC(=O)N2c2cc(C#N)ccn2)[C@H](C(=O)NC2CC(F)(F)C2)c2ccccc2Cl)c1 [Compound 128, (S)—N—((S)-1-(2-Chlorophenyl)-2-((3,3-difluorocyclobutyl)amino)-2-oxoethyl)-N-(3-cyano-phenyl)-1-(4-cyanopyridin-2-yl)-5-oxopyrrolidine-2-carboxamide]
< 100 nM	COc1cccc(N(C(=O)[C@@H]2CCC(=O)N2c2cc(C#N)ccn2)[C@H](C(=O)NC2CC(F)(F)C2)c2ccccc2Cl)c1 [Compound 129, (S)—N—((S)-1-(2C)-2-((3,3-difluorocyclobutyl)amino)-2-oxoethyl)-1-(4-cyanopyridin-2-yl)-N-(3-methoxyphenyl)-5-oxopyrrolidine-2-carboxamide]
